# Patent publication US7741346B2, “Angiogenesis inhibitor” (Santen Pharmaceutical Co., Ltd., priority 2001, dated 2010)
# Legend:
# [1] = test system: normal human umbilical vein endotherial cells (HUVEC); assay: VEGF-induced HUVEC proliferation (in vitro angiogenesis inhibition test); format: cell-based; settings: 10 μM test compound, 10 ng/ml VEGF, three days after adding VEGF, WST-8 absorbance at 450 nm; for Inhibitory rate (%) (cell growth inhibitory rate to the control): 10 µM; for inhibition at 10 µM: Homo sapiens, HUVEC, 72 h, read-out: Inhibitory rate (%) (cell growth inhibitory rate to the control)
# Description: (1) Angiogenesis Inhibition Tests Using Human Endothelial Cells
# The effects of the present compounds on the in vitro angiogenesis were evaluated by using vascular endothelial growth factor (VEGF)-induced normal human umbilical vein endotherial cells (HUVEC) proliferation system (Cancer Res., 59, 99-106 (1999)), wherein inhibitory effects of drugs on cell growth reactions induced by treating HUVEC with VEGF as an in vitro angiogenesis evaluation model.
# The present compound was dissolved in DMSO and then diluted with a medium to prepare 40 μM test compound solution.
# 2×10^3 cells/well of HUVEC was seeded onto a type I collagen coated 96-well plate. After one day, 25 μl of the 40 μM test compound solution and a 0.8% DMSO solution as a control were added to each well (final concentration; 10 μM of the test compound and 0.2% of DMSO). One hour after adding the test compound, 25 μl of 40 ng/ml VEGF solution was added to each well(final concentration; 10 ng/ml of VEGF). Three days after adding VEGF, a WST-8 assay reagent (manufactured by Dojin Chemical Co., Ltd.) was added to each well in an amount of 10 μl, and absorbance at 450 nm was measured.
# Calculating cell growth inhibitory rates (%) to the control, angiogenesis inhibitory rates of almost all of the test compounds were 80% or higher.
Structure (SMILES),Inhibitory rate (%) (cell growth inhibitory rate to the control) [1],inhibition at 10 µM [1],melting point
"CCCCCN(CCC12CC3CC(CC(C3)C1)C2)C(=O)NCC(C)Cc1ccncc1 (centres unmarked) [Compound No. 1-100, 1-[2-(1-Adamantyl)ethyl]-3-[2-methyl-3-(4-pyridyl)propyl]-1-pentylurea]",83.0%,–,–
"CCCCCN(CCC12CC3CC(CC(C3)C1)C2)C(=O)NC/C=C/c1ccncc1 [Compound No. 1-112, (E)-1-[2-(1-Adamantyl)ethyl]-1-pentyl-3-[3-(4-pyridyl)-2-propenyl]urea]",–,83.2%,90 to 118 °C
"CCCCCN(CCC12CC3CC(CC(C3)C1)C2)C(=O)CSCCc1ccncc1 [Compound No. 2-18, 2-[2-(4-Pyridyl)ethylthio]acetic acid N-[2-(1-adamantyl)ethyl]-N-pentylamide]",–,82.2%,–
"CCCCCN(CCC12CC3CC(CC(C3)C1)C2)C(=O)CCSCc1ccncc1 [Compound No. 2-15, 3-(4-Pyridylmethylthio)propionic acid N-[2-(1-adamantyl)ethyl]-N-pentylamide]",–,83.3%,–
"CCCCCN(CCC12CC3CC(CC(C3)C1)C2)C(=O)CCCCc1ccncc1 [Compound No. 2-14, 5-(4-Pyridyl)valeric acid N-[2-(1-adamantyl)ethyl]-N-pentylamide]",–,83.4%,–
"CCCCCN(CCC12CC3CC(CC(C3)C1)C2)C(=O)NC(C)CCc1ccncc1 (centres unmarked) [Compound No. 1-137, 1-[2-(1-Adamantyl)ethyl]-3-[1-methyl-3-(4-pyridyl)propyl]-1-pentylurea]",–,83.3%,128.5 to 129 °C
"CC=CCN(CCC12CC3CC(CC(C3)C1)C2)C(=O)NCCCc1ccncc1 [Compound No. 1-25, 1-[2-(1-Adamantyl)ethyl]-1-(2-butenyl)-3-[3-(4-pyridyl)propyl]urea]",–,83.2%,89.5 to 93.5 °C
"O=C(NCCCc1ccncc1)N(CCC(F)(F)F)CCC12CC3CC(CC(C3)C1)C2 [Compound No. 1-24, 1-[2-(1-Adamantyl)ethyl]-3-[3-(4-pyridyl)propyl]-1-(3,3,3-trifluoropropyl)urea]",–,82.1%,107.5 to 109 °C
"CCCCCN(CCC1CCCCC1)C(=O)NCC(C)Cc1ccncc1 (centres unmarked) [Compound No. 1-118, 1-(2-Cyclohexylethyl)-3-[2-methyl-3-(4-pyridyl)propyl]-1-pentylurea]",–,81.6%,–
"CCCCCN(CCC12CC3CC(CC(C3)C1)C2)C(=O)NCC(C)Cc1ccncc1 (single isomer, unassigned; (-)) [Compound No. 1-120, (−)-1-[2-(1-Adamantyl)ethyl]-3-[2-methyl-3-(4-pyridyl)propyl]-1-pentylurea]",–,83.1%,–
"CC(CNC(=O)N(CCN(C)C(=O)OC(C)(C)C)CCC12CC3CC(CC(C3)C1)C2)Cc1ccncc1 (single isomer, unassigned; (+)) [Compound No. 1-139, (+)-1-[2-(1-Adamantyl)ethyl]-1-[2-[N-(t-butoxycarbonyl)-N-methylamino]ethyl]-3-[2-methyl-3-(4-pyridyl)propyl]urea]",83.1%,–,122.7 to 123.7 °C
"CN(CCN(CCC12CC3CC(CC(C3)C1)C2)C(=O)NCCCc1ccncc1)C(=O)OC(C)(C)C [Compound No. 1-26, 1-[2-(1-Adamantyl)ethyl]-[2-[N-(t-butoxycarbonyl)-N-methylamino]ethyl]-3-[3-(4-pyridyl)propyl]urea]",–,79.2%,–
